Entries after “also recorded” stand apart in the source; their conditions may differ.
Experiments:
[1] = tested on: Pol II (SiR-Rpb1) at the CMV mini-gene transcription site; experiment: SiR-Rpb1 (Pol II) dynamics at the CMV mini-gene after inhibitor addition (target-locking); type: cell-based, human; conditions: for SiR-Rpb1 exponential decay time (ii) individual target-locked transcription site traces: 10 μM flavopiridol or 10 μM triptolide, mean±S.D.; for SiR-Rpb1 exponential decay time (i) fit parameters of total signal from different transcription sites: after adding 10 μM flavopiridol or 10 μM triptolide, target-locking
Method: To visualize Pol II, example implementations may express a SNAP-tagged Rpb1 Pol II subunit (SNAP-Rpb1). […] Importantly, the brightness and gradual SiR-Rpb1 photobleaching within these foci (see below) indicates multiple Pol II molecules accumulating at the mini-gene. Previously, it was unclear to what extent transcription is carried out by individual, solitary Pol II molecules, or whether it involves multiple Pol II molecules. When Pol II clustering occurs, as typically little information on genomic position and promoter activity is simultaneously available, it has been hard to establish whether and how this phenomenon relates to transcription. Our observations reveal that focal Pol II accumulation and transcription activity from a specific promoter at a specific genomic locus are spatially and temporally linked.
Regarding target-locking probes nanometer Pol II organization at the transcription site, motion blur and bleaching during scanning distorts the 3D images, limits the observation times and makes quantifying and tracking Pol II at the transcription site, with single-molecule sensitivity and higher spatio-temporal resolution, extremely difficult (FIGS. 11D, 11E). To eliminate scanning, example implementations may develop a target-locking system that obtains single-shot spatial information (FIG. 10A) and actively stabilizes the transcription site at the (common) excitation maximum/STED zero. With feedback loop speeds up to 30 fps, tdPCP-EGFP is locked within ˜30 nm root-mean-square (r.m.s.) from the desired set-point (FIGS. 4E, 4F, 11F). Target-locking at the excitation maximum provides the same total photon counts as scanning, but at orders-of-magnitude lower power, improving photostability. […]
Pol II closely follows the fate of nascent transcripts: SiR-Rpb1 accumulation gradually decreases after inhibitor addition (FIGS. 3B, 3C and 13H decay times 160-240 sec). […] The good agreement with decay rates measured optically further supports the notion that the accumulated SiR-Rpb1 signal reflects multiple elongating/terminating Pol IIs.
For active feedback control, example implementations may adopt a custom LabVIEW program, optimized for fast CCD acquisition (via, e.g., detection system 150), real-time image analysis and active microscope stabilization using nanopositioning equipment (e.g., platform 190). The images obtained from the Ixon3 897 detector (e.g., detection system 150) were analyzed on the fly by non-linear least-squares fitting of a 21×21 pixel ROI to a 2D Gaussian peak function implemented in LabVIEW. […] The coordinates returned by the 2D Gaussian peak fit were passed onto a PID controller that calculated the desired position correction that was commanded to the nanopositioning stage controller. […]

[2] = tested on: Pou5f1 transcription site (MCP-mNeonGreen nascent RNA); experiment: MCP-mNeonGreen nascent transcription at the endogenous Pou5f1 locus in mESCs (live-cell imaging); type: cell-based, mouse; conditions: for MCP-mNeonGreen exponential decay time: Pou5f1, mESCs, 10 μM flavopiridol, 10 μM triptolide or 1 μM JQ1, mean±S.D.
Method: All the mESCs were cultured and maintained in +2i media with appropriate selection drugs on 0.1% gelatin-coated dishes, at 37° C. in a humidified 5% CO2 incubator. +2i media contain D-MEM (Thermo Fisher Scientific 10313021), 15% fetal bovine serum (Gemini Bio 100-500), 0.1 mM β-mercaptoethanol (Thermo Fisher Scientific 21985023), 2 mM L-alanyl-L-glutamine (Thermo Fisher Scientific 35050079), 1×MEM nonessential amino acids (Thermo Fisher Scientific 11140076), 1000 U/mL LIF (Millipore ESG1107), […] (Millipore 361559) and 1 μM PD0325901 (Axon Medichem 1408). OMG and NMG SNAP-Rpb1 cells were cultured with +2i media plus 3 μg/ml α-amanitin.
Before imaging, cells were seeded onto 8-chamber coverglass (LabTek, 155411) coated with 5 μg/ml laminin (BioLamina LN511), in −2i media (OMG) or +2i media (NMG) and appropriate drugs. For SiR staining, cells were labeled with media containing 0.3 μM SiR-BG for 10 mins, at 37° C., followed by three washes with new media.
Wide-Field Cell Imaging Experiments. Live cell imaging experiments (tdPCP-EGFP and MCP-mNeonGreen tracking). For time-lapse imaging, a z-stack of 11 frames at 1 frame/second was acquired, by stepping the sample along the z-axis using the nanopositioning stage (250 nm steps). The CCD data were analyzed using IDL 6.4 (ITTVIS). Maximum projection images were calculated for each stack, and the resulting 11 sec/frame movie was used to track the intensities of individual tdPCP-EGFP-tagged transcription sites. A particle tracking routine (Crocker and Grier, 1996) was used for finding the positions of the transcription site in each frame and linking them into a 2D trajectory. The intensity trace of tdPCP-EGFP at the transcription site was corrected for photo-bleaching using the time trace of tdPCP-EGFP in a nearby nuclear region. The auto-correlation function was calculated (for the tdPCP-EGFP fluctuation analysis), or the data were imported in Origin 8.5.0 (OriginLab) and the trace fitted to a single-exponential decay (for the transcription inhibition experiments).

[3] = tested on: Pol II (SiR-Rpb1) at the Pou5f1 transcription site; experiment: SiR-Rpb1 (Pol II) dynamics at Pou5f1 after drug addition (target-locking); type: cell-based, mouse; conditions: for Rpb1 exponential decay time from fits: Pou5f1, 10 μM flavopiridol, 10 μM triptolide or 1 μM JQ1; for Pol II signal at Pou5f1 upon transcription inhibition: paralleled by nascent RNA loss
Method: The images obtained from the Ixon3 897 detector (e.g., detection system 150) were analyzed on the fly by non-linear least-squares fitting of a 21×21 pixel ROI to a 2D Gaussian peak function implemented in LabVIEW. Axial localization was achieved either though the degree of defocus or based on astigmatism. The coordinates returned by the 2D Gaussian peak fit were passed onto a PID controller that calculated the desired position correction that was commanded to the nanopositioning stage controller. The LabVIEW application ran at sustained speeds of up to 30 frames/second. Before imaging, cells were seeded onto 8-chamber coverglass (LabTek, 155411) coated with 5 μg/ml laminin (BioLamina LN511), in −2i media (OMG) or +2i media (NMG) and appropriate drugs. For SiR staining, cells were labeled with media containing 0.3 μM SiR-BG for 10 mins, at 37° C., followed by three washes with new media. OMG-1 or NMG mESCs (1×106) were transfected with 10 μg PB007-EF1α-Flag-SNAP-Rpb1 (αAmR) and 1 μg pCMV-hyPBase vectors using Lipofectamine 2000 (Invitrogen 11668019). Cells were subjected to 3 mg/ml α-amanitin 2 days post-transfection. Individual α-amanitin-resistant colonies were picked after ˜2 weeks, expanded, labeled with SiR-BG and imaged.

[4] = tested on: Med22 foci at the Pou5f1 locus; experiment: Med22 cluster signal at Pou5f1 upon inhibition (live-cell confocal/STED scans); type: cell-based, mouse; conditions: 1 μM JQ1 or 10 μM Flavopiridol
Method: For real-time confocal and STED imaging, example implementations may program the wave generator to scan 2 μm×2 μm or 1 μm×1 μm xy areas in 0.8 sec or 0.2 sec respectively. 3D scanning was performed (via, e.g., detection system 150) by acquiring 5 xy scans while moving the stage by 0.5 μm in z between scans. TTL pulses corresponding to single-photon events from the APDs, together with the trigger pulses from the wave generator were detected using a field-programmable gate array (FPGA) data acquisition system (National Instruments, PCIe-7852R).

Row | SMILES | SiR-Rpb1 exponential decay time (ii) individual target-locked transcription site traces [1] | SiR-Rpb1 exponential decay time (i) fit parameters of total signal from different transcription sites [1] | MCP-mNeonGreen exponential decay time [2] | Rpb1 exponential decay time from fits [3] | Pol II signal at Pou5f1 upon transcription inhibition [3] | Hill equation n, relative MCP signal vs. [JQ1] ([2]; Pou5f1) | response of individual Pou5f1 transcription sites at intermediate inhibitor concentration ([2]; intermediate [A-485] or [JQ1]) | Pou5f1 transcription activity ([2]; upon JQ1 (FIG. 7A, 1 μM)) | Med22 signal at Pou5f1 upon inhibition [4]
1 | CC(C)[C@]12O[C@H]1[C@@H]1O[C@]13[C@]1(O[C@H]1C[C@H]1C4=C(CC[C@@]13C)C(=O)OC4)[C@@H]2O [triptolide] | 242 ± 148 s | 239 ± 24 s | 378 ± 115 s | 565 ± 109 s | gradual Pol II signal loss |  |  |  | 
2 | Cc1sc2c(c1C)C(c1ccc(Cl)cc1)=N[C@@H](CC(=O)OC(C)(C)C)c1nnc(C)n1-2 [JQ1] |  |  | 300 ± 136 s | 310 ± 123 s |  | 1.1±0.7 | decays to a new finite plateau; also recorded: attenuated output, without completely shutting down | abruptly abolishes | drop close to noise-floor
3 | CN1CC[C@H](c2c(O)cc(O)c3c(=O)cc(-c4ccccc4Cl)oc23)[C@H](O)C1 [flavopiridol] | 162 ± 71 s | 238 ± 49 s | 378 ± 193 s | 347 ± 104 s | gradual Pol II signal loss |  |  |  | not lost

— patent US12031897B2, “Target-locking single-molecule nanoscopy” (Memorial Sloan Kettering Cancer Center, priority 2019, dated 2024)
